The text below walks through data of US9284283B2, “Macrocyclic compounds for modulating IL-17” (ENSEMBLE THERAPEUTICS CORPORATION, priority 2012, dated 2016).

SMILES strings stand for the structures. pIC50: −log10 of the molar value.

As usually defined, the pIC50 is −log10 of the IC50, conventionally taken in molar units.

The target of the assay is T1, biotinylated human IL-17 (binding to IL17R/Fc) (Homo sapiens, UniProt Q16552).
T1 construct: purchased R&D Systems 317-ILB (IL-17, biotinylated); 177-IR (IL17R/Fc)
T1 sequence (Q16552 20-155 limits assumed): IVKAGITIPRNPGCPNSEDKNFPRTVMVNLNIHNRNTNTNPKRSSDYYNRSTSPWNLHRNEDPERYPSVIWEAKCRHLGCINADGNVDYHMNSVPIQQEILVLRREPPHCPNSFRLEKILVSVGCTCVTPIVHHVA
Briefly: IL-17 competition ELISA II (captured IL17R/Fc, biotinylated IL-17). In a few lines: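 Competition read-out: absorbance at 450 nm after streptavidin-HRP/TMB detection, fitted to a 4-parameter logistic model bounded by no-competitor and blank wells to give IC50. Compound was serially diluted 5-fold from 1 μM alongside 20 nM (stock) biotinylated IL-17 on IL17R/Fc (10 nM) captured via goat anti-human IgG, 30 min at room temperature.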
(In general: An ELISA detects its analyte on a solid surface through an enzyme-linked reagent.)
Take `C[C@H]1NC(=O)[C@@H](Cc2ccc(NC(=O)[C@H](Cc3ccccc3Cl)NC(=O)Cc3ccc(F)cc3)cc2)NC(=O)CC2(CCOCC2)NC(=O)CCCCCCNC1=O` [Compound 622]: the pIC50 is 6.00 to 7.00.
Turning to `C[C@H]1NC(=O)[C@@H](Cc2ccc(NC(=O)[C@@H](NC(=O)Cc3ccc(F)cc3)C3CCCCC3)cc2)NC(=O)CC2(CCCC2)CC(=O)N(C)CCCCCN(C)C1=O` [Compound 623], the pIC50 was more than 7.00.
Turning to `COC(=O)N[C@H](C(=O)Nc1ccc(C[C@H]2NC(=O)CC3(CCCC3)CC(=O)N(C)CCOCCOCCNC2=O)cc1)C1CCCCC1` [Compound 624], the negative-log IC50 (pIC50) is less than 5.00.
Then `COC(=O)N[C@H](C(=O)Nc1ccc(C[C@H]2NC(=O)CC3(CCCC3)CC(=O)N(C)CCCCCN(C)C(=O)[C@@H](C)NC2=O)cc1)C1CCCCC1` [Compound 625], with 6.00 to 7.00.
With `C[C@H]1NC(=O)[C@@H](Cc2ccc(NC(=O)[C@H](Cc3ccccc3Cl)NC(=O)Cc3cccnc3)cc2)NC(=O)CC2(CCCC2)CC(=O)N(C)CCCCCN(C)C1=O` [Compound 628], the pIC50 was more than 7.00.
As for `CN1CCCCCN(C)C(=O)[C@@H](Cc2ccncc2)NC(=O)[C@@H](Cc2ccc(NC(=O)[C@H](Cc3ccccc3Cl)NC(=O)Cc3cccnc3)cc2)NC(=O)CC2(CCCC2)CC1=O` [Compound 629], the pIC50 is more than 7.00.
In the case of `C[C@H]1NC(=O)[C@@H](Cc2ccc(NC(=O)[C@H](Cc3cccs3)NC(=O)C(F)(F)c3ccccc3)cc2)NC(=O)CC2(CCCC2)CC(=O)N(C)CCCCCN(C)C1=O` [Compound 630], the pIC50 is more than 7.00.
Then `C[C@H]1NC(=O)[C@@H](Cc2ccc(NC(=O)[C@@H](NC(=O)C(F)(F)c3ccccc3)C3Cc4ccccc4C3)cc2)NC(=O)CC2(CCCC2)CC(=O)N(C)CCCCCN(C)C1=O` [Compound 631], with more than 7.00; and `COC(=O)N[C@H](C(=O)Nc1ccc(C[C@H]2NC(=O)CC3(CCCC3)CC(=O)NCCOCCOCCNC2=O)cc1)C1CCCCC1` [Compound 632], with 6.00 to 7.00.
The value for `C[C@H]1NC(=O)[C@@H](Cc2ccc(NC(=O)[C@H](Cc3ccccc3Cl)NC(=O)C(F)(F)c3ccccc3)cc2)NC(=O)C[C@H](Cc2ccccc2)NC(=O)CCNC(=O)CCNC1=O` [Compound 633] was more than 7.00; that for `C[C@H]1NC(=O)[C@@H](Cc2ccc(NC(=O)[C@H](Cc3ccccc3Cl)NC(=O)C(F)(F)c3ccccc3)cc2)NC(=O)C[C@@H](Cc2ccccc2)NC(=O)CCNC(=O)CCNC1=O` [Compound 634] was more than 7.00; that for `C[C@H]1NC(=O)[C@@H](Cc2ccc(NC(=O)[C@H](Cc3ccccc3Cl)NC(=O)C(F)(F)c3ccccc3)cc2)NC(=O)CC2(CCCC2)NC(=O)CCNC(=O)CCNC1=O` [Compound 635] was more than 7.00.
The value for `C[C@H]1NC(=O)[C@@H](Cc2ccc(NC(=O)[C@H](Cc3ccccc3Cl)NC(=O)C(F)(F)c3ccccc3)cc2)NC(=O)CC2(CCCC2)NC(=O)CCNC(=O)CCN(C)C1=O` [Compound 636] was more than 7.00.
In the case of `CN1CCOCCN(C)C(=O)[C@@H](Cc2ccccn2)NC(=O)[C@@H](Cc2ccc(NC(=O)[C@H](Cc3ccccc3Cl)NC(=O)C(F)(F)c3ccccc3)cc2)NC(=O)CC2(CCCC2)CC1=O` [Compound 637], the pIC50 was more than 7.00.
Then `CN1CCOCCN(C)C(=O)[C@@H](Cc2cccnc2)NC(=O)[C@@H](Cc2ccc(NC(=O)[C@H](Cc3ccccc3Cl)NC(=O)C(F)(F)c3ccccc3)cc2)NC(=O)CC2(CCCC2)CC1=O` [Compound 638], with more than 7.00.
Then `CN1CCOCCOCCNC(=O)[C@@H](Cc2ccc(NC(=O)[C@@H](NC(=O)Cc3ccc(N(C)C)cc3)C3CCCCC3)cc2)NC(=O)CC2(CCCC2)CC1=O` [Compound 640], with more than 7.00; and `CN(C)CCCC[C@H]1NC(=O)[C@@H](Cc2ccc(NC(=O)[C@H](Cc3ccccc3Cl)NC(=O)C(F)(F)c3ccccc3)cc2)NC(=O)CC2(CCCC2)CC(=O)N(C)CCOCCN(C)C1=O` [Compound 641], with more than 7.00.
The value for `CN(C)CC[C@H]1NC(=O)[C@@H](Cc2ccc(NC(=O)[C@H](Cc3ccccc3Cl)NC(=O)C(F)(F)c3ccccc3)cc2)NC(=O)CC2(CCCC2)CC(=O)N(C)CCOCCN(C)C1=O` [Compound 642] was more than 7.00.
Take `CC(c1ccccc1)C(NC(=O)C(F)(F)c1ccccc1)C(=O)Nc1ccc(C[C@H]2NC(=O)CC3(CCCC3)CC(=O)N(C)CCOCCOCCNC2=O)cc1` (some centres unmarked) [Compound 643]: the pIC50 is more than 7.00.
With `C[C@H]1NC(=O)[C@@H](Cc2ccc(NC(=O)[C@@H](NC(=O)Cc3ccc(N(C)C)cc3)C3Cc4ccccc4C3)cc2)NC(=O)CC2(CCCC2)CC(=O)N(C)CCCCCN(C)C1=O` [Compound 644], the pIC50 was more than 7.00.
Then `O=C1CC2(CCCC2)CC(=O)N[C@H](Cc2ccc(NC(=O)[C@@H](NC(=O)Cc3cccc(O)c3)C3CCCCC3)cc2)C(=O)NCCOCCOCCN1` [Compound 647], with more than 7.00; and `CN1CCOCCN(C)C(=O)[C@@H](CCS(C)(=O)=O)NC(=O)[C@@H](Cc2ccc(NC(=O)[C@H](Cc3ccccc3Cl)NC(=O)C(F)(F)c3ccccc3)cc2)NC(=O)CC2(CCCC2)CC1=O` [Compound 649], with more than 7.00; and `CN1CCOCCN(C)C(=O)[C@@H](Cc2cccnc2)NC(=O)[C@@H](Cc2ccc(NC(=O)[C@@H](NC(=O)C(F)(F)c3ccccc3)C3CCCCC3)cc2)NC(=O)CC2(CCCC2)CC1=O` [Compound 650], with more than 7.00.
Then `NC(=O)CC[C@@H]1NC(=O)[C@@H](Cc2ccc(NC(=O)[C@H](Cc3ccccc3Cl)NC(=O)Cc3ccc(F)cc3)cc2)NC(=O)CC2(CCCC2)CC(=O)N[C@H](C(=O)O)CCCCNC1=O` [Compound 651], with more than 7.00; and `O=C1CC2(CCCC2)NC(=O)CCCCNC(=O)[C@@H](Cc2ccc(NC(=O)[C@H](Cc3ccccc3Cl)NC(=O)C(F)(F)c3ccccc3)cc2)N1` [Compound 652], with 6.00 to 7.00; and `C[C@H]1NC(=O)[C@@H](Cc2ccc(NC(=O)[C@H](Cc3ccccc3Cl)Nc3nc4ccccc4o3)cc2)NC(=O)CC2(CCCC2)CC(=O)N(C)CCOCCN(C)C1=O` [Compound 654], with more than 7.00.
The value for `CC(O)[C@H]1NC(=O)[C@@H](Cc2ccc(NC(=O)[C@@H](NC(=O)C(F)(F)c3ccccc3)C3CCCCC3)cc2)NC(=O)CC2(CCCC2)CC(=O)N(C)CCOCCN(C)C1=O` (some centres unmarked) [Compound 655] was more than 7.00; that for `NC(=O)c1ccccc1C[C@H]1NC(=O)[C@@H](Cc2ccc(NC(=O)[C@H](Cc3ccccc3Cl)NC(=O)Cc3ccc(CO)cc3)cc2)NC(=O)CC2(CCCC2)CC(=O)N[C@H](C(=O)O)CCCCNC1=O` [Compound 659] was more than 7.00.
As to `C[C@H]1NC(=O)[C@@H](Cc2ccc(NC(=O)[C@@H](Nc3nc4ccccc4o3)C3CCCCC3)cc2)NC(=O)CC2(CCCC2)CC(=O)N(C)CCOCCN(C)C1=O` [Compound 663], the pIC50 is more than 7.00.
For `C[C@H]1NC(=O)[C@@H](Cc2ccc(NC(=O)[C@@H](Nc3nc4ccccc4o3)C3CCCCC3)cc2)NC(=O)CC2(CCCC2)CC(=O)NCCCCCNC1=O` [Compound 664], the pIC50 is more than 7.00.
Then `C[C@H]1NC(=O)[C@@H](Cc2ccc(NC(=O)[C@@H](Nc3nc4ccccc4o3)C3CCCCC3)cc2)NC(=O)CC2(CCCC2)CC(=O)N(C)CCCCCN(C)C1=O` [Compound 665], with more than 7.00; and `COC(=O)c1coc(N[C@@H](Cc2ccccc2Cl)C(=O)Nc2ccc(C[C@H]3NC(=O)CC4(CCCC4)CC(=O)N(C)CCOCCN(C)C(=O)[C@@H](C)NC3=O)cc2)n1` [Compound 666], with more than 7.00.
